Values of other authors in patent publication US20120101005A1, “METHODS FOR PREDICTING THE TOXICITY OF A CHEMICAL” (GE HEALTHCARE UK LIMITED, priority 2009, published 2012).
Like-named read-outs stand apart in the source and are kept apart here.

How the values were obtained:
[1] = molecular target: p140 trk tyrosine kinase NGF-receptor (Rattus norvegicus, UniProt P35739); conditions: read-out: IC50, p140 trk NGF-receptor autophosphorylation
EGF receptor = EGF receptor (Homo sapiens, UniProt P00533)
Chain of EGF receptor (P00533 25-1210): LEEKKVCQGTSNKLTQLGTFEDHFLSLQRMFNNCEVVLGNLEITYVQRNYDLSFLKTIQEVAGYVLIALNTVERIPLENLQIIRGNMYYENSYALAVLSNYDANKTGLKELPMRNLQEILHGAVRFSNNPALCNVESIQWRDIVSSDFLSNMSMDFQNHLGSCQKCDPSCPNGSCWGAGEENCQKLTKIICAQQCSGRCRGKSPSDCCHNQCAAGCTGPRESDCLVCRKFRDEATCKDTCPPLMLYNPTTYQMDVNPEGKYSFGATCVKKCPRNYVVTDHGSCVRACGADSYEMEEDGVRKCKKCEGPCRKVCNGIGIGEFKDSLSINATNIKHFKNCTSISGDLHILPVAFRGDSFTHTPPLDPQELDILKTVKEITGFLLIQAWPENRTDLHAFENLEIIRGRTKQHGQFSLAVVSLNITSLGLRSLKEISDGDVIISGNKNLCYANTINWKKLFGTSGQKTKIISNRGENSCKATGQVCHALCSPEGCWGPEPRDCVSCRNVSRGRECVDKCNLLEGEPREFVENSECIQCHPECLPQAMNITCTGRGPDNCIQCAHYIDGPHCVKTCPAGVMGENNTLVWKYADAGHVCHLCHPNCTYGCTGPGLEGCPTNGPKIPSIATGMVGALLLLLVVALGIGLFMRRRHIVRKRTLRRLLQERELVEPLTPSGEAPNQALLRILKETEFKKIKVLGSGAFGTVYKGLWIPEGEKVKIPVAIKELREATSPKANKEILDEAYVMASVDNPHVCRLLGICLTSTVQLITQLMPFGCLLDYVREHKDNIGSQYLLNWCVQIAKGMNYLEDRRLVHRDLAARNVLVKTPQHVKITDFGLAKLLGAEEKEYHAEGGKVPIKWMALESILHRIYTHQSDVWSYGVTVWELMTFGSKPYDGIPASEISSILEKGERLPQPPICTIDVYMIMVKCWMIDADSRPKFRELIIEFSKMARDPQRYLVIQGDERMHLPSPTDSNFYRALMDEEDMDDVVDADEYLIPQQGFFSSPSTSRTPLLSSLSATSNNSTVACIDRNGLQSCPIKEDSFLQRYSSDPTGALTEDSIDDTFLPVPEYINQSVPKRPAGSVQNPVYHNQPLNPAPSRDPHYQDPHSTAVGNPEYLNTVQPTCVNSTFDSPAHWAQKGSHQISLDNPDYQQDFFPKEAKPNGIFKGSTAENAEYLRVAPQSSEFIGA

rat PC12 cells = conditions: for NGF-induced neuronal differentiation of PC12 cells: monitored by generation of neurite processes
[2] = system: p140 trk tyrosine kinase NGF-receptor; conditions: compound interacts with NGF
[3] = system: common neurotrophin receptor p75NTR; conditions: compound interacts with NGF
[4] = system: human embryonic stem cells
ES cells [5] = system: ES cells
ES cells [6] = conditions: co-treatment with retinoic acid
[7] = system: 3T3-F442A, 3T3-L1, Ob1771 and embryonic stem cells
[8] = system: C3H10T1/2 mesenchymal stem cells; conditions: induced with 200 nM insulin, 1 μM BRL49653 and LGD1069; lipogenesis, oil red O-staining, AP2 and LPL expression
[9] = 1 μM on the first day of the differentiation process

Chain of p140 trk tyrosine kinase NGF-receptor (Rattus norvegicus, UniProt P35739) (P35739 33-799): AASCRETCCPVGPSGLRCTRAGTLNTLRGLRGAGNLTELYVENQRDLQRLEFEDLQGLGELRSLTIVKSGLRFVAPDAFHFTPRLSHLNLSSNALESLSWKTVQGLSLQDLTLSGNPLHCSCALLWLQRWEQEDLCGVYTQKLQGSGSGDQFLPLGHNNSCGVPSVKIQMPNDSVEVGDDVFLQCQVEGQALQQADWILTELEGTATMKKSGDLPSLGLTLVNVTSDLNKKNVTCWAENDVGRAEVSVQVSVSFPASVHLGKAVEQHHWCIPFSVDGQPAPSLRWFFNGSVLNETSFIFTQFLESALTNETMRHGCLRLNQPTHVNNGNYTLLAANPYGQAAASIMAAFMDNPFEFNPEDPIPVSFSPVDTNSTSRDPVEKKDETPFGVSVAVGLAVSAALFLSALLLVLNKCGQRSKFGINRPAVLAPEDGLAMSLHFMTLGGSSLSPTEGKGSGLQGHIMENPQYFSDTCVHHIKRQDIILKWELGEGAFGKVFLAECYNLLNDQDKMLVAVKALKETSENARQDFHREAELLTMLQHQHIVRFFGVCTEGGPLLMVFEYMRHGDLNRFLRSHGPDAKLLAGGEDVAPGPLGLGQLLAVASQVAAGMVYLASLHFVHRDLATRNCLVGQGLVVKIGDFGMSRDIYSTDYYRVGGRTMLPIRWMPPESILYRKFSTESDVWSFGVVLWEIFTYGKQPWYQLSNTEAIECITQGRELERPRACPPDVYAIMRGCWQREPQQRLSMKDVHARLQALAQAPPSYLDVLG

SMILES: CC(C)(C)c1cc(/C=C(\C#N)C(N)=S)cc(C(C)(C)C)c1O [AG-879]
- IC50 [1]: 10 µM
- inhibition of PDGF receptor phosphorylation (PDGF receptor): no inhibition
- inhibition of EGF receptor phosphorylation (EGF receptor): no inhibition
- NGF-induced neurite outgrowth in PC12 cells (rat PC12 cells): inhibits NGF-induced neurite outgrowth

SMILES: Nc1ncnc2c1ncn2C(C=O)OC(C=O)CO (centres unmarked) [AdOx, Adenosine dialdehyde]
- expression levels of the neuronal markers β-tubulin, NeuroD1 and mash1 (P19 EC cells; [9]): decreased
- number of neurites observed (P19 EC cells; [9]): decreased

SMILES: CCCCCCCCCC(=O)N[C@H](CN1CCOCC1)[C@H](O)c1ccccc1 [D-PDMP, D-theo-1-phenyl-2-decanoylamino-3-morphlino-1-propanol]
- death of P19-derived neurons (P19 EC cells): causing the death of P19-derived neurons
- cell death of undifferentiated P19 EC cells (P19 EC cells; 50 μM): without any indication of cell death
- proliferation of the undifferentiated P19 EC cells (P19 EC cells; 50 μM, added 3 days prior to retinoic acid and maintained): reduced
- neurite elongation (P19 EC cells; 50 μM, neurites present but failed to develop correctly): abolished neurite elongation
- neurite outgrowth (P19 EC cells; P19 EC in-vitro neuronal differentiation model): inhibited neurite outgrowth

SMILES: Cc1cc(S(C)(=O)=O)c(S(C)(=O)=O)cc1C(=O)NC(=N)N [EMD87580]
- cardiomyocyte differentiation of mouse P19 embryonic carcinoma cells (mouse P19 cell; during DMSO induction): inhibit the cardiomyocyte differentiation

SMILES: COC(=O)[C@]1(O)C[C@H]2O[C@]1(C)n1c3ccc(O)cc3c3c4c(c5c6ccccc6n2c5c31)C(=O)NC4=O [Indocarbazostatin C]
- NGF-induced neuronal differentiation of PC12 cells (rat PC12 cells): inhibitors

SMILES: COC(=O)[C@]1(O)C[C@H]2O[C@]1(C)n1c3ccc(O)c(N)c3c3c4c(c5c6ccccc6n2c5c31)C(=O)NC4=O [Indocarbazostatin D]
- NGF-induced neuronal differentiation of PC12 cells (rat PC12 cells): inhibitors

SMILES: COC(=O)[C@@]1(O)C[C@H]2O[C@]1(C)n1c3ccccc3c3c4c(c5c6ccccc6n2c5c31)C(=O)NC4 [K-252a]
- NGF-induced neuronal differentiation of PC12 cells (rat PC12 cells): effective inhibitors

SMILES: C[C@]12O[C@H](C[C@]1(O)C(=O)O)n1c3ccccc3c3c4c(c5c6ccccc6n2c5c31)CNC4=O [K-252b]
- NGF-induced neuronal differentiation of PC12 cells (rat PC12 cells): effective inhibitors

SMILES: Cn1c2ccc(NC(=O)c3ccccc3)cc2c(=O)n2nc(C(=O)O)cc12 [PD90780, 7-(Benzolylamino)-4,9-Dihydro-4-Methyl-9-Oxo-Pyrazolo[5,1-b]Quinazoline-2-Carboxlic Acid]
- binding of NGF to p140 trk tyrosine kinase NGF-receptor [2]: preventing its binding
- NGF-induced neuronal differentiation of PC12 cells (rat PC12 cells): abolishes
- binding of NGF to p75NTR [3]: preventing its binding

SMILES: COc1cccc(-c2cc(=O)c3ccccc3o2)c1N [PD98059, 2″-Amino-3″-Methoxyflavone]
- concentration at which reported as inhibitor of human embryonic stem cell cardiomyocyte differentiation [4]: 5 to 25 µM
- differentiation of ES cells into neuron or cardiomyocytes (ES cells [5]): no effect
- adipocyte formation from ES cells (ES cells [6]): prevents adipocyte formation
- expression of adipogenic markers in ES cells (ES cells [6]): prevented
- adipocyte formation from ES cells (ES cells [6]; listed as PD68059): prevented
- NGF-induced neurite formation in PC12 cells (rat PC12 cells): completely blocks
- cell viability of PC12 cells (rat PC12 cells): without affecting cell viability

SMILES: Cn1cc(C2=C(c3ccc(Cl)cc3Cl)C(=O)NC2=O)c2ccccc21 [SB216763]
- concentration at which reported as inhibitor of human embryonic stem cell cardiomyocyte differentiation [4]: 10 to 25 µM

SMILES: C[S+]([O-])c1ccc(-c2nc(-c3ccc(F)cc3)c(-c3ccncc3)[nH]2)cc1 (centres unmarked) [SB 203580, 4-(4″-fluorophenyl)-2-(4″-methylsulfinylphenyl)-5-(4″-pyridyl) imidazole]
- number of cardiomyocytes from human embryonic stem cells ([4]; 15 μM): dramatically reduces the number of cardiomyocytes
- cardiomyocyte differentiation of human embryonic stem cells ([4]; 25 μM): completely blocked
- generation of cardiomyocytes from human embryonic stem cells ([4]; 1-10 μM): enhances the generation of cardiomyocytes
- P19 cell differentiation into cardiomyocytes (mouse P19 cell; 10 μM, cardiac-actin by immuno-histochemistry, cardiac-actin and atrial natriuretic peptide by RT-PCR): prevent mouse P19 cell differentiation into cardiomycocytes
- effect on the activities of ERKs (ERKs): no significant effect
- effect on the activities of JNKs (JNKs): no significant effect

SMILES: CC(C)(C)NC(=O)[C@@H]1CN(Cc2cccnc2)CCN1C[C@@H](O)C[C@@H](Cc1ccccc1)C(=O)N[C@H]1c2ccccc2C[C@H]1O [indinavir]
- adipocyte differentiation, by cell model [7]: inhibited the differentiation of only 3T3-L1 and 3T3-F442A cells

SMILES: Cc1cccc(C)c1OCC(=O)N[C@@H](Cc1ccccc1)[C@@H](O)C[C@H](Cc1ccccc1)NC(=O)[C@H](C(C)C)N1CCCNC1=O [lopinavir]
- adipocyte differentiation, by cell model [7]: inhibited adipocyte differentiation in all cells tested

SMILES: Cc1c(O)cccc1C(=O)N[C@@H](CSc1ccccc1)[C@H](O)CN1C[C@H]2CCCC[C@H]2C[C@H]1C(=O)NC(C)(C)C [nelfinavir]
- adipocyte differentiation of mesenchymal stem cells [8]: reduced the adipocyte differentiation
- adipocyte differentiation, by cell model [7]: inhibited adipocyte differentiation in all cells tested

SMILES: CC(C)c1nc(CN(C)C(=O)N[C@H](C(=O)N[C@@H](Cc2ccccc2)C[C@H](O)[C@H](Cc2ccccc2)NC(=O)OCc2cncs2)C(C)C)cs1 [ritonavir]
- adipocyte differentiation of mesenchymal stem cells [8]: reduced the adipocyte differentiation
- adipocyte differentiation, by cell model [7]: inhibited the differentiation of only 3T3-L1 and 3T3-F442A cells

SMILES: CC(C)(C)NC(=O)[C@@H]1C[C@@H]2CCCC[C@@H]2CN1C[C@@H](O)[C@H](Cc1ccccc1)NC(=O)[C@H](CC(N)=O)NC(=O)c1ccc2ccccc2n1 [saquinavir]
- adipocyte differentiation of mesenchymal stem cells [8]: reduced the adipocyte differentiation
- adipocyte differentiation, by cell model [7]: inhibited the differentiation of only 3T3-L1 and 3T3-F442A cells
